Article PMC4324447 (Journal of Medicinal Chemistry, 2014)

How the values were obtained:
WT hMC4R = WT hMC4R (Homo sapiens, UniProt P32245); format: cell-based
L106P hMC4R = L106P hMC4R (Homo sapiens, UniProt P32245, L106P); test: cAMP based CRE/β-galactosidase reporter gene functional bioassay, L106P hMC4R; format: cell-based
Chain of L106P hMC4R (P32245 whole entry L106P): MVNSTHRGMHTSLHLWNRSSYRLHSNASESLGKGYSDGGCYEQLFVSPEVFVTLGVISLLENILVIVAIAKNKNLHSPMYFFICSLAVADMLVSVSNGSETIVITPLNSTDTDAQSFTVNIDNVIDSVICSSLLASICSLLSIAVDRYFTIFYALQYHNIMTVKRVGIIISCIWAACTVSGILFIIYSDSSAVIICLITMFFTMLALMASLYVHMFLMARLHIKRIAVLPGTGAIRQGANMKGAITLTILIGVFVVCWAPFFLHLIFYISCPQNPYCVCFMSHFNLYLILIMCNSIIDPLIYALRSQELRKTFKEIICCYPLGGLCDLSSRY

Chain of WT hMC4R (P32245 whole entry): as the sequence (P32245 whole entry L106P) above, with P106L counted along it

CC(=O)N[C@@H](Cc1cnc[nH]1)C(=O)N[C@H](Cc1ccccc1)C(=O)N[C@@H](CCCN=C(N)N)C(=O)N1Cc2ccccc2C[C@H]1C(N)=O [EMH4-107, Ac-His-DPhe-Arg-Tic-NH2]
EC50 (WT hMC4R): > 10 µM | EC50 (L106P hMC4R): > 100 µM
